Experimental data taken from patent US20140011853A1, “SUBSTITUTED 3-(BIPHENYL-3-YL)-8,8-DIFLUORO-4-HYDROXY-1-AZASPIRO[4.5]DEC-3-EN-2-ONES FOR THERAPY” (BAYER INTELLECTUAL PROPERTY GMBH, priority 2011, published 2014).
“And” between values parts separate entries of the source, which are not always exact repeats. Equal values may be shown once. Read-outs that look alike come from different tables or passages of the source.

Experiments:
human ACC1 [1] = biological target: T1, human ACC1 (Homo sapiens, UniProt Q13085); experiment: Human ACC1 enzyme assay (ADP-Glo); type: biochemical
T1 construct: FLAG (C); made in house; host or cells: baculovirus-infected insect cells (Hi5)

human ACC1 [2] = experiment: Human ACC1 enzyme assay (ADP-Glo); type: biochemical; conditions: for Ratio of IC50s ACC2/ACC1 (respective measurement): pairwise, same dilution series
KM12 = experiment: Tumour cell proliferation, CellTiter-Glo, 96-hour incubation, KM12; type: cell-based
Method: (§1) In accordance with the invention, the substances were tested in cell-based assays for the ability of the substances of inhibiting tumour cell proliferation after a 96-hour incubation with the substance. Cell viability was tested using the CellTiter-Glo® luminescent cell viability assay (Promega). The cells were sown at a density of 2000-5000 cells/well (depending on the cell line) in 100 μl growth medium on 96-well microtiter plates. For each cell line examined, cells were sown on a separate plate to determine the luminescence at t=0 hours and t=96 hours. After overnight incubation at 37° C., the luminescence values for the t=0 samples were determined. The dose plates for the t=96 hours points in time were treated with substances diluted with growth medium. The cells were then incubated at 37° C. for 96 hours, and the luminescence values for the t=96 hours samples were then determined. For data analysis, the t=0 values were subtracted from the t=96 hours values for treated and untreated samples. The differences in luminescence in percent between substance-treated samples and control values were used to determine the growth inhibition in percent.
(§2) The substances were tested in the following cell lines which represent the stated indications in an exemplary manner: […]

PC3 = experiment: Tumour cell proliferation, CellTiter-Glo, 96-hour incubation, PC3; type: cell-based
Method: as §1, §2

H460 = experiment: Tumour cell proliferation, CellTiter-Glo, 96-hour incubation, H460; type: cell-based
Method: as §1, §2

MCF7 = experiment: Tumour cell proliferation, CellTiter-Glo, 96-hour incubation, MCF7; type: cell-based
Method: as §1, §2

Myzus persicae = experiment: Myzus test (MYZUPE spray treatment); type: in vivo; conditions: Myzus persicae, 144 h; for pest or weed control at 500 g/ha: read-out: effect (kill of aphids)
Source text: Disks of Chinese cabbage (Brassica pekinensis) infested by all stages of the green peach aphid (Myzus persicae) are sprayed with an active compound formulation of the desired concentration.

Tetranychus urticae = experiment: Tetranychus test, OP-resistant (TETRUR spray treatment); type: in vivo; conditions: Tetranychus urticae, 144 h; for pest or weed control at 100 g/ha: read-out: effect (kill of spider mites)
Meloidogyne incognita = Meloidogyne incognita test (MELGIN); type: in vivo; conditions: 20 ppm, after 14 days
Method: • Solvent: 125 parts by weight of acetone
Containers are filled with sand, solution of active compound, Meloidogyne incognita egg/larvae suspension and lettuce seeds. The lettuce seeds germinate and the plants develop. On the roots, galls are formed. After 14 days, the nematicidal effect in % is determined by the formation of galls. 100% means that no galls have been found; 0% means that the number of galls on the treated plants corresponds to the untreated control.

human ACC2 = human ACC2 (Homo sapiens, UniProt O00763); experiment: Human ACC2 enzyme assay (ADP-Glo); conditions: ACC 2 IC50, individual measurements
Phaedon cochleariae = experiment: Phaedon test (PHAECO spray treatment)
[3] = Octanol/water distribution coefficient (logP/D), isocratic HPLC method; type: physicochemical; conditions: pH 7.4
Source text: Assay for Determining the Octanol/Water Distribution Coefficient (logP/D):
The distribution coefficient octanol/water P or D is a key parameter for estimating membrane penetration and permeability. It is defined as the ratio of the equilibrium concentrations of a substance in the two-phase system octanol/water.
It is usually stated in form of the decadic logarithm (logP or logD).
logP describes the distribution behaviour of a substance exclusively present in its neutral form. logD describes the distribution behaviour of a substance at a certain pH; depending on the ionization constant pKa of the substance, some of the substance may be present in ionic form, and some in neutral form.
The logP/D of the active compounds was determined using an isocratic HPLC method (HPLC=high performance liquid chromatography) (literature: OECD Guideline for Testing of Chemicals No. 117). The method is based on the correlation of the HPLC retention time of the test substance to that of reference substances with known distribution coefficients.
The test substance was employed as a 10 mM solution in DMSO (DMSO=dimethyl sulphoxide). 10 μl of this solution were made up to 100 μl with a methanol/water mixture in a ratio of 7+3.
The nine reference substances were dissolved individually in methanol. 100 μl each of the stock solutions were added to an HPLC vial and mixed with 300 μl of water.
A formamide solution was used to determine the hold-up time. To this end, 7 mg of formamide were dissolved in 10 ml of methanol. 100 μl of this stock solution were mixed with 500 μl of methanol and 200 μl of water.
All solutions were chromatographed using a flow rate of 1.00 ml/min.
Injection Protocol: formamide, references, test substance 1, test substance 2, . . . , formamide, references.
Evaluation of the retention times was carried out in a diode array detector (DAD) at 200-400 nm Via the molecular mass, the identity of the test substance was checked using the downstream mass spectrometer.
The HPLC run was evaluated using the Waters software Masslynx 4.1.
The logP/D values were calculated using the software “POW Determination” (proprietary development).

[4] = Membrane affinity logMA (MA-Transil); type: physicochemical; conditions: buffer pH 7.4
[5] = biological target: human serum albumin (HSA) (Homo sapiens, UniProt P02768); experiment: Protein binding to human serum albumin (HSA-Transil)
[6] = Plasma protein binding by equilibrium dialysis, human; type: in vitro ADME; conditions: read-out: fu (human)
Method: (§3) The binding of test substances to plasma proteins is determined by equilibrium dialysis by means of the Ht-dialysis apparatus (96-well) made of Teflon and a semipermeable membrane (regenerated cellulose, MWCO 12-14K). This separates 150 μl each of a plasma side and a buffer side (50 mM phosphate buffer). The test substance is added in 2 concentrations (usually 3 and 0.3 μM) to the plasma side and binds to plasma proteins. The unbound fraction of the test substance passes through the membrane and is distributed on either side until equilibrium is established (after approx. 6-8 h at 37° C.). The substance concentration on the buffer side and the plasma side is determined by LC-MS analysis. For this, both sides are brought by dilution with buffer or plasma to the same matrix (10% plasma) and then precipitated with methanol. The free (unbound) fraction (fu) is calculated from the quotient of the buffer and plasma concentration. Stability tests and recovery tests are run concurrently as controls. In addition, the substance in buffer is dialysed against buffer, to check the nonspecific binding to apparatus and membrane and establishment of equilibrium. Because during incubation the osmotic pressure of the plasma proteins leads to dilution of the plasma (volume shift), this possible error is determined by weighing blank plasma samples and is included in the calculation of fu. Establishment of equilibrium and plasma stability should have a value not lower than 80% and the recovery should be at least 30%. A free fraction of <1% is regarded as high, between 1 and 10% as moderate and >10% as low plasma protein binding.

[7] = Plasma protein binding by equilibrium dialysis, mouse; type: in vitro ADME; conditions: read-out: fu (mouse)
Method: as §3

[8] = Plasma protein binding by equilibrium dialysis, rat; type: in vitro ADME; conditions: read-out: fu (rat)
Method: as §3

[9] = ACC 1 IC50, individual measurements
[10] = Homo sapiens, MCF7, 96 h, read-out: MCF7 IC50
[11] = individual measurements, read-out: ACC 1 IC50
[12] = Homo sapiens, KM12, 96 h; read-out: KM12 IC50
[13] = Homo sapiens, PC-3, 96 h; read-out: PC3 IC50
[14] = Homo sapiens, NCI-H460, 96 h; read-out: H460 IC50
[15] = Homo sapiens, MCF7, 96 h; read-out: MCF7 IC50

Sequence of human ACC2 (O00763 27-2458 limits assumed): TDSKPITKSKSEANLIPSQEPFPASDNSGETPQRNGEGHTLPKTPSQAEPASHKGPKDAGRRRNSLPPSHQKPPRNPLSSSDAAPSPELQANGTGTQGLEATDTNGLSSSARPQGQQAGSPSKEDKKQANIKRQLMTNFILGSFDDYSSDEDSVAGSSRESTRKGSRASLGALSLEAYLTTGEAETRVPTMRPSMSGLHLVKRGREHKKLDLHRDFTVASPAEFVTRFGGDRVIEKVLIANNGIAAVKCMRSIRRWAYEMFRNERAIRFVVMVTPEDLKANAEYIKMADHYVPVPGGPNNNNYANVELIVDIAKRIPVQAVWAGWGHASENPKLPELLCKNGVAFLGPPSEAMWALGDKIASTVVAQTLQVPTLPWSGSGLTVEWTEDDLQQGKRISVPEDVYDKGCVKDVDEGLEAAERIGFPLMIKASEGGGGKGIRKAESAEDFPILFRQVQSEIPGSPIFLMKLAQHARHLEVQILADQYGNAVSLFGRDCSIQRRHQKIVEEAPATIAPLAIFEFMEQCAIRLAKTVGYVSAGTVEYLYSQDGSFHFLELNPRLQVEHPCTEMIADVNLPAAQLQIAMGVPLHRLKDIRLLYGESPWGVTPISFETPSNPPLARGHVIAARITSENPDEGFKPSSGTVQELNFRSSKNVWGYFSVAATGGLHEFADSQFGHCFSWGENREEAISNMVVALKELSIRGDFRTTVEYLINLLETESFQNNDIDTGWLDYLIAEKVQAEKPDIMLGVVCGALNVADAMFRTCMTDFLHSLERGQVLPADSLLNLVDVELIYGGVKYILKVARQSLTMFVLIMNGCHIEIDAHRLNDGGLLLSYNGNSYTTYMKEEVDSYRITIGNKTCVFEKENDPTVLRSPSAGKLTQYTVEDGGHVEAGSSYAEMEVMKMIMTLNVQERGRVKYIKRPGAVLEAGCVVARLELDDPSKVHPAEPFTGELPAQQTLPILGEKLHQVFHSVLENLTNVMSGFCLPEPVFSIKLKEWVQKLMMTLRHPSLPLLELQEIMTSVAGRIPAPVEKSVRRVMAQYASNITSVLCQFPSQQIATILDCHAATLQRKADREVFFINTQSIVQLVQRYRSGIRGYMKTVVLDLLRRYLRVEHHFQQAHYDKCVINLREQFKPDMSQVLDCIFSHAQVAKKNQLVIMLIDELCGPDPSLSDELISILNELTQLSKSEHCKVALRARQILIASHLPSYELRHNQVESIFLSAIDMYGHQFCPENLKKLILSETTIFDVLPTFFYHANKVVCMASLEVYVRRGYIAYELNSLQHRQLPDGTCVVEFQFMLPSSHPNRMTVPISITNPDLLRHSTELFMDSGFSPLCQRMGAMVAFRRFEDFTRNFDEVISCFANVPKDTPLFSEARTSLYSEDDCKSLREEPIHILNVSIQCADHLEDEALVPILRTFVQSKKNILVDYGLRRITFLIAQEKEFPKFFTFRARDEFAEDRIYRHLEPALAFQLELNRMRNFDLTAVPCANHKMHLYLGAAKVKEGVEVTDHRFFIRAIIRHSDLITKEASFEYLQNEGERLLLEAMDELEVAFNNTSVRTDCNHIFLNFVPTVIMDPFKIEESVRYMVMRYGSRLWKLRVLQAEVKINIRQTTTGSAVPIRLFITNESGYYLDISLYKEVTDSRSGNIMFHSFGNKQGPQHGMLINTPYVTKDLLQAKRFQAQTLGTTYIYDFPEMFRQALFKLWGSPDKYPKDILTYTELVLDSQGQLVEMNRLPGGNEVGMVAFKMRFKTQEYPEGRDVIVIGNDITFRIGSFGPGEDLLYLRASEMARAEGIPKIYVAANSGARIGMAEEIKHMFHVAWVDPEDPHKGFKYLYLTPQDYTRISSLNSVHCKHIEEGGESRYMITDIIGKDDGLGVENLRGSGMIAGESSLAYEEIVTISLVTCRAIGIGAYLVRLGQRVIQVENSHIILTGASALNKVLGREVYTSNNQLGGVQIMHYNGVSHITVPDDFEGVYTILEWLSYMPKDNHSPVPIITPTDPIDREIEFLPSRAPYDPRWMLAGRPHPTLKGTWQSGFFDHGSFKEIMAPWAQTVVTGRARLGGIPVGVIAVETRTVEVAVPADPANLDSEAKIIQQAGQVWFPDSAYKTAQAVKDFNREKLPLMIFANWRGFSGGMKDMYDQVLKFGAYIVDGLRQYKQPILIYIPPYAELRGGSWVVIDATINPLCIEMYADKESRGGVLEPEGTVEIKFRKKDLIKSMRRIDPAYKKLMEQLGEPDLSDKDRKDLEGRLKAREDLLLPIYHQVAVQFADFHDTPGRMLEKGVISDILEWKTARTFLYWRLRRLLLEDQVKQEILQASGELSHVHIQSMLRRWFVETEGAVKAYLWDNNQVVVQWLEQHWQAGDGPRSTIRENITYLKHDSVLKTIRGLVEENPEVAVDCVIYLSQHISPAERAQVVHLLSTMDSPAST
Sequence of human serum albumin (HSA) (P02768 25-609): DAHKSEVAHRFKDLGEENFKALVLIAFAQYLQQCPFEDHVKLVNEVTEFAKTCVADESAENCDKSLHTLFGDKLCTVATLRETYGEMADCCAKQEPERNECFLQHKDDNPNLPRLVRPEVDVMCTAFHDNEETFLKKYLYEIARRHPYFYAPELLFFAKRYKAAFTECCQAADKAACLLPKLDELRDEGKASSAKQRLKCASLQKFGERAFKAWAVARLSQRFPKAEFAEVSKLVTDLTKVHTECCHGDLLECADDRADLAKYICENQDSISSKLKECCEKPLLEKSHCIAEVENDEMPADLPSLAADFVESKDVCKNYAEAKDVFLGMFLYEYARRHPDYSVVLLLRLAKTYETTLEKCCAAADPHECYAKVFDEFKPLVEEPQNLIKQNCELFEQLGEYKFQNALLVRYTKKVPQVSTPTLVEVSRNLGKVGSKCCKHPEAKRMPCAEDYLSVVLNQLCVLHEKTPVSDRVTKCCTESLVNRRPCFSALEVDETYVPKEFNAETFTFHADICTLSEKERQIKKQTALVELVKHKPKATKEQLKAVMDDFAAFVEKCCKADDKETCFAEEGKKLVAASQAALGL

Compound | IC50 (human ACC1 [1]; [9]) | Selectivity ACC1 vs. ACC2 (mean of the individual measurements ± standard deviation) (human ACC1 [2]) | Ratio of IC50s ACC2/ACC1 (respective measurement) (human ACC1 [2]) | IC50 (MCF7; [10]) | melting point | IC50 (human ACC2) | IC50 (human ACC1 [1]; [11]) | IC50 (KM12; [12]) | IC50 (PC3; [13]) | IC50 (H460; [14]) | IC50 (MCF7; [15]) | chromatographic logP [3] | logMA [4] | Kd [5] | fraction unbound [6] | fraction unbound [7] | fraction unbound [8] | further results
Cc1ccc(-c2ccc(Cl)cc2)c(C)c1C1=C(O)C2(CCC(F)(F)CC2)NC1=O [Example 1-5, 3-(4′-Chloro-2,4-dimethylbiphenyl-3-yl)-8,8-difluoro-4-hydroxy-1-azaspiro[4.5]dec-3-en-2-one] | 0.218 µM | 12.4 | 12.4 | 0.205 µM | 141 to 145 °C | 2.7 µM |  |  |  |  |  |  |  |  |  |  |  | IC50 (KM12; Homo sapiens, KM12, 96 h, read-out: KM12 IC50): 0.668 µM; IC50 (PC3; Homo sapiens, PC-3, 96 h, read-out: PC3 IC50): 0.506 µM; IC50 (H460; Homo sapiens, NCI-H460, 96 h, read-out: H460 IC50): 0.769 µM; pest or weed control at 500 g/ha (Myzus persicae): 100%; pest or weed control at 100 g/ha (Tetranychus urticae): 90%; nematicidal effect (formation of galls) (Meloidogyne incognita): 100%
Cc1ccc(-c2ccc(F)c(F)c2)cc1C1=C(O)C2(CCC(F)(F)CC2)NC1=O [Example 1-6, 3-(3′,4′-Difluoro-4-methylbiphenyl-3-yl)-8,8-difluoro-4-hydroxy-1-azaspiro[4.5]dec-3-en-2-one] |  | 51.9 ± 22.8 |  |  | 223 °C | 3.87 µM and 8.03 µM | 0.133 µM and 0.107 µM | 0.257 µM | 0.158 µM | 0.371 µM | 0.045 µM |  |  |  |  |  |  | inhibition at 20 g/ha (Myzus persicae; 20 g/ha, 6 d, read-out: % activity MYZUPE): 100%; pest or weed control at 500 g/ha (Myzus persicae; 500 g/ha, after 6 days): 100%; inhibition at 20 g/ha (Tetranychus urticae; 20 g/ha, 6 d, read-out: % activity TETRUR): 90%; pest or weed control at 100 g/ha (Tetranychus urticae; 100 g/ha, after 6 days): 90%; effect (kill of beetle larvae) (Phaedon cochleariae; 500 g/ha, after 7 days): 100%; inhibition at 20 g/ha (Phaedon cochleariae; Phaedon cochleariae, 168 h, read-out: % activity PHAECO): 67%
Cc1ccc(-c2ccc(Cl)c(F)c2)cc1C1=C(O)[C@]2(CC[C@H](C(F)(F)F)CC2)NC1=O [V.1-a, (5s,8s)-3-(4′-Chloro-3′-fluoro-4-methylbiphenyl-3-yl)-4-hydroxy-8-(trifluoromethyl)-1-azaspiro[4.5]dec-3-en-2-one, reference compound] |  | 9.4 ± 0.8 | 8.6 and 10.3 |  |  | 0.58 µM and 0.61 µM | 0.067 µM and 0.059 µM | 0.245 µM | 0.398 µM | 0.573 µM | 0.03 µM | 2.55 | 2.55 (2.4-2.7, n = 2) | 1.43 µM |  |  |  | 
Cc1ccc(-c2ccc(Cl)c(F)c2)cc1C1=C(O)C2(CCCCC2)NC1=O [V.1-b, 3-(4′-Chloro-3′-fluoro-4-methylbiphenyl-3-yl)-4-hydroxy-1-azaspiro[4.5]dec-3-en-2-one, reference compound] |  | 46.9 | 45.9 |  |  | 1.95 µM | 0.043 µM |  |  |  | 0.022 µM | 2.8 | 2.55 (2.4-2.9, n = 4) | 3.5 µM | 0.004 | 0.0746 | 0.0612 | 
Cc1ccc(-c2ccc(Cl)cc2)cc1C1=C(O)C2(CCCCC2)NC1=O [V.2-b, 3-(4′-Chloro-4-methylbiphenyl-3-yl)-4-hydroxy-1-azaspiro[4.5]dec-3-en-2-one, reference compound] | 0.208 µM and 0.196 µM | 12.8 ± 1.3 | 11.5 and 14.1 | 0.041 µM |  | 2.4 µM and 2.76 µM |  |  |  |  |  | 2.77 | 2.05 (1.9-2.2, n = 2) | 3.22 µM | 0.0036 | 0.0281 | 0.0071 | 
